# Experimental data taken from patent publication US20040014047A1, “Antisense modulation of LIM domain kinase 1 expression” (Isis Pharmaceuticals Inc., priority 2002, published 2004).
# Strand notation (5' to 3'): a small letter for the sugar, then the base; units joined by * are phosphorothioate-linked, units joined directly phosphodiester-linked; [ ] holds rarer units or linkages, { } end groups; capitals alone tell only the bases. e = 2'-O-(2-methoxyethyl) (MOE); [5mC] = 5-methylcytosine; d = 2'-deoxy (DNA)
# Test system: human LIM domain kinase 1 mRNA
# Test: Antisense inhibition of human LIM domain kinase 1 mRNA levels, quantitative real-time PCR, A549 cells (screen)
# Assay type: cell-based
# Conditions: for % INHIB (inhibition of human LIM domain kinase 1 mRNA levels): quantitative real-time PCR, averages from two experiments, screening concentration not given (50 nM to 300 nM used herein); for inhibition of human LIM domain kinase 1 expression (text summary of Table 1): real-time PCR, bound stated
# Procedure: When cells reached 70% confluency, they were treated with oligonucleotide. […] Cells were harvested 16-24 hours after oligonucleotide treatment.
# Vacuum was applied for 1 minute.
# PCR reagents were obtained from Invitrogen Corporation, (Carlsbad, Calif.).
# Total RNA is quantified using RiboGreenTM RNA quantification reagent from Molecular Probes.
# Probes and primers to human LIM domain kinase 1 were designed to hybridize to a human LIM domain kinase 1 sequence, using published sequence information (GenBank accession number D26309.1, incorporated herein as SEQ ID NO:4). For human LIM domain kinase 1 the PCR primers were: forward primer: […] (SEQ ID NO: 5) reverse primer: […] (SEQ ID NO: 6) and the PCR probe was: FAM-[…]-TAMRA (SEQ ID NO: 7) where FAM is the fluorescent dye and TAMRA is the quencher dye.
# All cytidine residues are 5-methylcytidines. […] Data are averages from two experiments in which A549 cells were treated with the oligonucleotides of the present invention. […] If present, “N.D.” indicates “no data”.
Substance,% INHIB (inhibition of human LIM domain kinase 1 mRNA levels) [%],inhibition of human LIM domain kinase 1 expression (text summary of Table 1)
206202 (antisense eG*eT*e[5mC]*eT*e[5mC]*dG*dG*dT*dG*dG*dA*dT*dG*dA*dT*eG*eT*eT*e[5mC]*eA) [compound 206202],69,–
206203 (antisense eT*eT*eG*eT*eG*dG*dG*dA*dG*dT*dT*dG*dA*dG*dG*eT*e[5mC]*eT*e[5mC]*eG) [compound 206203],55,–
206204 (antisense e[5mC]*eA*eT*eT*e[5mC]*dT*dT*dG*dT*dT*d[5mC]*dT*d[5mC]*dG*d[5mC]*eG*eG*eA*e[5mC]*e[5mC]) [compound 206204],81,–
206205 (antisense eA*eA*eA*eG*eG*dA*dT*dG*dG*d[5mC]*d[5mC]*dT*d[5mC]*dT*dT*e[5mC]*eT*e[5mC]*eG*eG) [compound 206205],74,–
206206 (antisense e[5mC]*eG*e[5mC]*e[5mC]*eG*dG*dT*dA*dG*dG*dT*d[5mC]*dT*d[5mC]*d[5mC]*e[5mC]*eA*eG*eA*eA) [compound 206206],28,–
206207 (antisense eG*eT*eG*eG*e[5mC]*d[5mC]*d[5mC]*dT*dG*dG*d[5mC]*dT*d[5mC]*dA*dG*eT*e[5mC]*eG*eG*eG) [compound 206207],80,–
206208 (antisense e[5mC]*e[5mC]*eA*e[5mC]*e[5mC]*dT*d[5mC]*d[5mC]*d[5mC]*dG*d[5mC]*dG*dG*dA*dG*eG*eA*eA*eT*e[5mC]) [compound 206208],79,–
206209 (antisense e[5mC]*eT*e[5mC]*eT*eG*dG*dG*d[5mC]*d[5mC]*dA*d[5mC]*dG*dG*d[5mC]*dA*eG*eA*eG*eA*eG) [compound 206209],80,–
206210 (antisense e[5mC]*e[5mC]*eT*e[5mC]*e[5mC]*dA*dG*dG*dG*dA*dG*d[5mC]*dT*dA*dT*eG*eG*eA*e[5mC]*e[5mC]) [compound 206210],83,–
206211 (antisense eT*e[5mC]*eT*eG*e[5mC]*d[5mC]*d[5mC]*dT*dG*dA*dT*dG*dT*dG*d[5mC]*eG*e[5mC]*e[5mC]*e[5mC]*eT) [compound 206211],59,–
206213 (antisense e[5mC]*e[5mC]*e[5mC]*eT*eG*dA*dG*dG*d[5mC]*dT*dT*dG*dG*dT*dA*e[5mC]*e[5mC]*eT*eG*e[5mC]) [compound 206213],14,–
206215 (antisense eG*e[5mC]*eA*eG*e[5mC]*dT*dG*d[5mC]*dT*dG*d[5mC]*dT*dG*d[5mC]*dA*eG*e[5mC]*e[5mC]*eG*eT) [compound 206215],75,–
206216 (antisense eT*e[5mC]*eA*e[5mC]*eA*dG*dT*dT*dT*dT*dA*dA*dT*dA*d[5mC]*eT*eT*e[5mC]*e[5mC]*eT) [compound 206216],0,–
206217 (antisense eA*eA*eG*e[5mC]*eT*dT*d[5mC]*dA*d[5mC]*dA*dG*dT*dT*dT*dT*eA*eA*eT*eA*e[5mC]) [compound 206217],68,–
206218 (antisense eT*eG*eA*eG*eA*dA*dA*dG*d[5mC]*dT*dT*d[5mC]*dA*d[5mC]*dA*eG*eT*eT*eT*eT) [compound 206218],43,–
206220 (antisense e[5mC]*eA*eA*eA*eG*dT*dG*d[5mC]*dA*d[5mC]*dT*dG*dA*dG*dA*eA*eA*eG*e[5mC]*eT) [compound 206220],59,–
206221 (antisense eT*e[5mC]*e[5mC]*e[5mC]*eA*d[5mC]*d[5mC]*dT*d[5mC]*d[5mC]*d[5mC]*dT*dA*dA*dG*eT*e[5mC]*eA*eT*eG) [compound 206221],17,–
206222 (antisense eG*eG*eT*eG*eG*dG*dT*d[5mC]*d[5mC]*d[5mC]*dA*d[5mC]*d[5mC]*dT*d[5mC]*e[5mC]*e[5mC]*eT*eA*eA) [compound 206222],63,–
206223 (antisense eG*eG*eT*eG*eT*dG*dT*d[5mC]*dA*d[5mC]*d[5mC]*dT*dT*dG*dA*eT*eA*eG*e[5mC]*e[5mC]) [compound 206223],62,–
206224 (antisense eG*e[5mC]*eT*eG*e[5mC]*dT*dG*d[5mC]*dA*dG*d[5mC]*d[5mC]*dG*dT*dA*eT*eG*eA*eA*eA) [compound 206224],66,–

Substance,% INHIB (inhibition of human LIM domain kinase 1 mRNA levels) [%],inhibition of human LIM domain kinase 1 expression (text summary of Table 1)
206225 (antisense eG*eG*eA*eG*eT*dG*dA*dA*dA*dG*d[5mC]*dA*d[5mC]*d[5mC]*d[5mC]*eA*eG*e[5mC]*eT*eG) [compound 206225],74,–
206226 (antisense eT*eA*eG*eG*eT*d[5mC]*d[5mC]*d[5mC]*dA*d[5mC]*dA*dG*d[5mC]*d[5mC]*d[5mC]*e[5mC]*eT*eG*eA*eG) [compound 206226],9,–
206227 (antisense e[5mC]*eT*e[5mC]*eA*eG*dA*d[5mC]*d[5mC]*d[5mC]*dT*dT*dG*dA*dG*dT*eT*eA*e[5mC]*eT*eG) [compound 206227],68,–
206228 (antisense eA*e[5mC]*eT*eG*e[5mC]*d[5mC]*dT*d[5mC]*dT*d[5mC]*dG*dG*dG*dT*dT*e[5mC]*eA*eA*eG*e[5mC]) [compound 206228],69,–
206229 (antisense eG*eT*e[5mC]*eA*e[5mC]*dA*dA*d[5mC]*dA*d[5mC]*d[5mC]*dT*dG*d[5mC]*dA*eG*eG*eA*eG*eA) [compound 206229],66,–
206230 (antisense e[5mC]*e[5mC]*eA*eG*eG*dT*dG*dA*dG*dT*dG*dT*dG*d[5mC]*dA*eA*eG*eG*e[5mC]*eA) [compound 206230],74,–
206231 (antisense eG*e[5mC]*eA*eG*eT*dG*d[5mC]*d[5mC]*d[5mC]*dG*d[5mC]*dT*dG*d[5mC]*dA*eA*eG*eA*eG*e[5mC]) [compound 206231],76,–
206232 (antisense eA*eT*eG*e[5mC]*eT*dG*d[5mC]*dA*dG*d[5mC]*dT*d[5mC]*d[5mC]*dT*d[5mC]*e[5mC]*eT*eG*eG*eG) [compound 206232],81,–
206233 (antisense eG*eG*eT*e[5mC]*e[5mC]*dT*dT*dG*d[5mC]*dG*d[5mC]*dT*dG*dG*dG*eA*eG*eG*e[5mC]*e[5mC]) [compound 206233],80,–
206234 (antisense e[5mC]*eA*eT*eT*e[5mC]*dT*dT*dG*dT*dT*d[5mC]*dT*dG*dG*dG*eA*eA*eG*eG*eT) [compound 206234],61,–
206235 (antisense eT*eA*eG*e[5mC]*eT*dG*dG*dG*dA*dT*dT*dA*d[5mC]*dA*dG*eT*eA*e[5mC]*eT*eA) [compound 206235],53,–
206236 (antisense e[5mC]*eT*eG*eG*eA*d[5mC]*d[5mC]*dT*dA*d[5mC]*d[5mC]*dT*d[5mC]*dG*d[5mC]*eA*e[5mC]*eA*eG*eG) [compound 206236],43,–
206237 (antisense eG*eT*e[5mC]*e[5mC]*eT*dG*d[5mC]*d[5mC]*d[5mC]*d[5mC]*dA*d[5mC]*dA*dG*dA*e[5mC]*eT*e[5mC]*eA*eG) [compound 206237],62,–
206238 (antisense eG*e[5mC]*eA*eT*eG*dA*dA*dG*dG*d[5mC]*dA*d[5mC]*dT*dA*d[5mC]*e[5mC]*eT*e[5mC]*e[5mC]*e[5mC]) [compound 206238],53,–
aaaggatggcctcttctcgg (eA*eA*eA*eG*eG*dA*dT*dG*dG*d[5mC]*d[5mC]*dT*d[5mC]*dT*dT*e[5mC]*eT*e[5mC]*eG*eG; antisense) [ISIS 206205],–,at least 65%
aacctcatgcactcgacggg (eA*eA*e[5mC]*e[5mC]*eT*d[5mC]*dA*dT*dG*d[5mC]*dA*d[5mC]*dT*d[5mC]*dG*eA*e[5mC]*eG*eG*eG; antisense) [ISIS 206161],–,at least 65%
aagcttcacagttttaatac (eA*eA*eG*e[5mC]*eT*dT*d[5mC]*dA*d[5mC]*dA*dG*dT*dT*dT*dT*eA*eA*eT*eA*e[5mC]; antisense) [ISIS 206217],–,at least 65%
acatctgggctcatgcagcc (eA*e[5mC]*eA*eT*e[5mC]*dT*dG*dG*dG*d[5mC]*dT*d[5mC]*dA*dT*dG*e[5mC]*eA*eG*e[5mC]*e[5mC]; antisense) [ISIS 206180],–,at least 65%
actgcctctcgggttcaagc (eA*e[5mC]*eT*eG*e[5mC]*d[5mC]*dT*d[5mC]*dT*d[5mC]*dG*dG*dG*dT*dT*e[5mC]*eA*eA*eG*e[5mC]; antisense) [ISIS 206228],–,at least 65%
agcttggagtgctccaccag (eA*eG*e[5mC]*eT*eT*dG*dG*dA*dG*dT*dG*d[5mC]*dT*d[5mC]*d[5mC]*eA*e[5mC]*e[5mC]*eA*eG; antisense) [ISIS 206177],–,at least 65%
